Here are results for 36 molecules from patent US9115101B2 (Genentech, Inc., priority 2012, dated 2015).

What is called IC50 is the concentration needed to halve the response being measured.

Like-named read-outs stand apart in the source and are kept apart here.

For the assay, the target named is T1, RORc ligand binding domain (Homo sapiens, UniProt P51449).
T1 construct: host or cells: E. coli
T1 sequence (P51449 269-508 limits assumed): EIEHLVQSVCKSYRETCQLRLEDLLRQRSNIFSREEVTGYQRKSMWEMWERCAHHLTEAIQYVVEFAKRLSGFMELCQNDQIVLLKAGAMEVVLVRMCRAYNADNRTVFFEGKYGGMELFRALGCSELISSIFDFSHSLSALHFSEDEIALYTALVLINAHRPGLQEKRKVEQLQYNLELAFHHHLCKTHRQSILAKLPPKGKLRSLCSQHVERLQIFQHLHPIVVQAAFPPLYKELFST
Kind of assay: In Vitro RORc Ligand Binding Assay (25-[3H]hydroxycholesterol radioligand filtration).

The mark [1] stands for this setting: In Vitro RORc Ligand Binding Assay, Table 4, read-out: RORc IC50.

`COC(=O)[C@@H]1CN(c2ccc(CN3[C@@H](C)CCC(c4ccccc4)S3(=O)=O)c(F)c2)CCN1C(C)=O` (stereo partly drawn) [Example 382, (S)-1-Acetyl-4-[3-fluoro-4-((3S)-methyl-1,1-dioxo-6-phenyl-[1,2]thiazinan-2-ylmethyl)-phenyl]-piperazine-2-carboxylic acid methyl ester]: under setting [1], the IC50 turned out to be 0.034 µM.

As for `C[C@H]1CCC(c2ccccc2)S(=O)(=O)N1Cc1ccc(C(=O)N2CCC[C@@H]2CO)cc1` (stereo partly drawn) [Example 291, (2-Hydroxymethyl-pyrrolidin-1-yl)-[4-((3S)-methyl-1,1-dioxo-6-phenyl-[1,2]thiazinan-2-ylmethyl)-phenyl]-methanone], under setting [1], the IC50 was determined as 0.911 µM.

Take `C[C@H]1CCC(c2ccccc2)S(=O)(=O)N1Cc1ccc(N2CCC(C(=O)NC#N)CC2)cc1F` (stereo partly drawn) [Example 125]: under setting [1], the IC50 was determined as 0.018 µM.

In the case of `C[C@H]1CCC(c2ccccc2)S(=O)(=O)N1Cc1ccc(OC2CCS(=O)(=O)CC2)cc1F` (single isomer, unassigned) [Example 39], the IC50 under setting [1] was 0.119 µM.

With `CC(=O)N1CCN(c2ccc(CN3C[C@H](C)CC(c4ccccc4)S3(=O)=O)c(F)c2)CC1` (single isomer, unassigned) [Example 170], the IC50 under setting [1] was 0.054 µM.

Regarding `C[C@H]1CCC(c2ccccc2)S(=O)(=O)N1Cc1ccc(N2CCC(c3cnn[nH]3)CC2)cc1F` (single isomer, unassigned) [Example 254], the IC50 under setting [1] was 0.009 µM.

With `CC[C@H]1CCC(c2ccccc2)S(=O)(=O)N1Cc1ccc(NC2CCN(S(C)(=O)=O)CC2)cc1F` (single isomer, unassigned) [Example 240], the IC50 under setting [1] was 0.004 µM.

Take `CS(=O)(=O)N1CCC(Oc2ccc(CN3CCOCC(c4ccccc4)S3(=O)=O)c(F)c2)CC1` (single isomer, unassigned) [Example 57, 5-(2-fluoro-4-((1-(methylsulfonyl)piperidin-4-yl)oxy)benzyl)-3-phenyl-1,4,5-oxathiazepane 4,4-dioxide]: the IC50 under setting [1] amounted to 0.014 µM.

On to `C[C@H]1CCC(c2ccccc2)S(=O)(=O)N1Cc1ccc(C(=O)N2CCCCC2CO)cc1` (stereo partly drawn) [Example 280, (2-Hydroxymethyl-piperidin-1-yl)-[4-((3S)-methyl-1,1-dioxo-6-phenyl-[1,2]thiazinan-2-ylmethyl)-phenyl]-methanone], for which the IC50 under setting [1] turned out to be 2.65 µM.

Turning to `CC(=O)N1CCN(c2ccc(CN3[C@@H](C)CCC(c4ccccc4)S3(=O)=O)c(F)c2)[C@@H](C)C1` (stereo partly drawn) [Example 237, 1-{4-[3-Fluoro-4-((3S)-methyl-1,1-dioxo-6-phenyl-[1,2]thiazinan-2-ylmethyl)-phenyl]-3-methyl-piperazin-1-yl}-ethanone], the IC50 under setting [1] was 0.006 µM.

As to `CC(=O)N1CCN(c2ccc(CN3[C@@H](C)CCC(c4cccc(C#N)c4)S3(=O)=O)c(F)c2)CC1` (single isomer, unassigned) [Example 203], under setting [1], the IC50 is 0.206 µM.

`C[C@H]1CCC(c2ccccc2)S(=O)(=O)N1Cc1ccc(OC2CCS(=O)(=O)CC2)cc1F` (single isomer, unassigned) [Example 38]: under setting [1], the IC50 was 0.135 µM.

In the case of `C[C@H]1CCC(c2ccccc2)S(=O)(=O)N1Cc1ccc(C(=O)N2CCN(S(=O)(=O)N(C)C)CC2)cc1` (stereo partly drawn) [Example 286, 4-[4-((3S)-Methyl-1,1-dioxo-6-phenyl-[1,2]thiazinan-2-ylmethyl)-benzoyl]-piperazine-1-sulfonic acid dimethylamide], under setting [1], the IC50 worked out at 7.42 µM.

Consider `C[C@H]1CCC(c2ccccc2)S(=O)(=O)N1Cc1ccc(OCC2CCOCC2)cc1` (stereo partly drawn) [Example 436, (3S)-Methyl-6-phenyl-2-[4-(tetrahydro-pyran-4-ylmethoxy)-benzyl]-[1,2]thiazinane 1,1-dioxide], for which the IC50 (read-out: RORc IC50) was 0.086 µM.

For `C[C@H]1CCC(c2ccccc2)S(=O)(=O)N1Cc1ccc(N2CCC(c3cc(O)no3)CC2)cc1F` (single isomer, unassigned) [Example 152], under setting [1], the IC50 turned out to be 0.029 µM.

Regarding `COc1ccccc1C1CC[C@H](C)N(Cc2ccc(N3CCN(C(C)=O)CC3)cc2F)S1(=O)=O` (single isomer, unassigned) [Example 224], the IC50 under setting [1] was 0.062 µM.

Consider `CC(=O)N1CCN(c2ccc(CN3[C@@H](C)CCCC(c4ccccc4)S3(=O)=O)c(F)c2)CC1` (single isomer, unassigned) [Example 322], for which, under setting [1], the half-inhibitory concentration (IC50) amounted to 0.026 µM.

For the molecule `CC1CN(S(C)(=O)=O)CCC1Nc1ccc(CN2[C@@H](C)CCC(c3ccccc3)S2(=O)=O)c(F)c1` (stereo partly drawn) [Example 451, [3-Fluoro-4-((3S)-methyl-1,1-dioxo-6-phenyl-[1,2]thiazinan-2-ylmethyl)-phenyl]-(1-methanesulfonyl-3-methyl-piperidin-4-yl)-amine], the IC50 (read-out: RORc IC50) worked out at 0.012 µM.

For `C[C@H]1CN(c2ccc(CN3[C@@H](C)CCC(c4ccccc4)S3(=O)=O)c(F)c2)CCN1C(=O)CC#N` (stereo partly drawn) [Example 263, 3-{4-[3-Fluoro-4-((3S)-methyl-1,1-dioxo-6-phenyl-[1,2]thiazinan-2-ylmethyl)-phenyl]-2-methyl-piperazin-1-yl}-3-oxo-propionitrile], the IC50 under setting [1] is 0.015 µM.

Turning to `CC(=O)N1CCCN(c2ccc(CN3[C@@H](C)CCC(c4ccccc4)S3(=O)=O)c(F)c2)CC1` (single isomer, unassigned) [Example 80], the half-maximal inhibitory concentration (IC50) under setting [1] was found to be 0.014 µM.

`C[C@H]1CCC(c2ccccc2)S(=O)(=O)N1Cc1ccc(N2CCC(n3ncnn3)CC2)cc1` (stereo partly drawn) [Example 423, (3S)-Methyl-6-phenyl-2-[4-(4-tetrazol-2-yl-piperidin-1-yl)-benzyl]-[1,2]thiazinane 1,1-dioxide]: the IC50 (read-out: RORc IC50) was determined as 0.177 µM.

With `CC1CN(S(C)(=O)=O)CCC1Nc1ccc(CN2[C@@H](C)CCC(c3ccccc3)S2(=O)=O)c(F)c1` (stereo partly drawn) [Example 453, [3-Fluoro-4-((3S)-methyl-1,1-dioxo-6-phenyl-[1,2]thiazinan-2-ylmethyl)-phenyl]-(1-methanesulfonyl-3-methyl-piperidin-4-yl)-amine], the IC50 (read-out: RORc IC50) is 0.009 µM.

Consider `COc1cccc(C2CC[C@H](C)N(Cc3ccc(N4CCN(C(C)=O)CC4)cc3F)S2(=O)=O)c1` (single isomer, unassigned) [Example 191], for which the IC50 under setting [1] stood at 0.116 µM.

As to `O=S1(=O)[C@@H](c2ccccc2)CCC2(CC2)N1Cc1ccc(N2CCC(n3cnnc3)CC2)cc1F` [Example 415, (R)-4-[2-Fluoro-4-(4-[1,2,4]triazol-4-yl-piperidin-1-yl)-benzyl]-6-phenyl-5-thia-4-aza-spiro[2.5]octane 5,5-dioxide], the half-inhibitory concentration (IC50) (RORc IC50) came to 0.037 µM.

`COCCNC(=O)[C@@H]1CN(c2ccc(CN3[C@@H](C)CCC(c4ccccc4)S3(=O)=O)c(F)c2)CCN1C(C)=O` (stereo partly drawn) [Example 393, (S)-1-Acetyl-4-[3-fluoro-4-((3S)-methyl-1,1-dioxo-6-phenyl-[1,2]thiazinan-2-ylmethyl)-phenyl]-piperazine-2-carboxylic acid (2-methoxy-ethyl)-amide]: under setting [1], the IC50 was determined as 0.697 µM.

For `CC(=O)N1CCN(c2ccc(CN3CC(C)(C)CC(c4ccccc4)S3(=O)=O)c(F)c2)CC1` (single isomer, unassigned) [Example 171, 1-{4-[4-(4,4-Dimethyl-1,1-dioxo-6-phenyl-[1,2]thiazinan-2-ylmethyl)-3-fluoro-phenyl]-piperazin-1-yl}-ethanone], the IC50 under setting [1] is 0.2 µM.

Take `CC(=O)N1CCCN(C(=O)c2ccc(CN3[C@@H](C)CCC(c4ccccc4)S3(=O)=O)cc2)CC1` (stereo partly drawn) [Example 285, 1-{4-[4-((3S)-Methyl-1,1-dioxo-6-phenyl-[1,2]thiazinan-2-ylmethyl)-benzoyl]-[1,4]diazepan-1-yl}-ethanone]: the 50% inhibitory concentration (IC50) under setting [1] is 4 µM.

`C[C@H]1CCC(c2ccccc2)S(=O)(=O)N1Cc1ccc(OC2CCOCC2)cc1` (stereo partly drawn) [Example 432, (3S)-Methyl-6-phenyl-2-[4-(tetrahydro-pyran-4-yloxy)-benzyl]-[1,2]thiazinane 1,1-dioxide]: the half-maximal inhibitory concentration (IC50) (read-out: RORc IC50) was found to be 1.11 µM.

Turning to `CC[C@H]1CCC(c2ccccc2)S(=O)(=O)N1Cc1ccc(N2CCN(C(C)=O)CC2)cc1F` (single isomer, unassigned) [Example 195], the IC50 under setting [1] was 0.073 µM.

As to `C[C@@H](O)C(=O)N1CCN(c2ccc(CN3CCCCC(c4ccccc4)S3(=O)=O)cc2)CC1` (single isomer, unassigned) [Example 317, 1-{4-[4-(1,1-Dioxo-7-phenyl-[1,2]thiazepan-2-ylmethyl)-phenyl]-piperazin-1-yl}-2-hydroxy-propan-1-one], the IC50 under setting [1] worked out at 3.4 µM.

As for `CC(=O)N1CCN(c2ccc(CN3[C@@H](C)CCC(c4ccc(F)cc4)S3(=O)=O)c(F)c2)CC1` (single isomer, unassigned) [Example 122], under setting [1], the IC50 was 0.047 µM.

As to `C[C@H]1CCC(c2ccccc2)S(=O)(=O)N1Cc1ccc(N2CCCN(C(=O)CC#N)CC2)cc1F` (single isomer, unassigned) [Example 82], the IC50 under setting [1] came to 0.022 µM.

For the molecule `CC(=O)N1CCN(c2ccc(CN3CCCCC(c4ccccc4)S3(=O)=O)cc2F)CC1` (single isomer, unassigned) [Example 346, 1-{4-[4 (1,1-Dioxo-7-phenyl-[1,2]thiazepan-2-ylmethyl)-2-fluoro-phenyl]-piperazin-1-yl}-ethanone], the IC50 under setting [1] was found to be 0.05 µM.

Turning to `CC(=O)N1CCN(c2ccc(CN3CCCC(c4ccc(F)cc4)S3(=O)=O)c(F)c2)CC1` (single isomer, unassigned) [Example 12, 1-(4-{3-Fluoro-4-[6-(4-fluoro-phenyl)-1,1-dioxo-[1,2]thiazinan-2-ylmethyl]-phenyl}-piperazin-1-yl)-ethanone], under setting [1], the IC50 came to 0.241 µM.

In the case of `CC(=O)N1CCN(c2ccc(CN3CCC(C)CC(c4ccccc4)S3(=O)=O)c(F)c2)CC1` (single isomer, unassigned) [Example 333, 1-{4-[3-Fluoro-4-(5-methyl-1,1-dioxo-7-phenyl-[1,2]thiazepan-2-ylmethyl)-phenyl]-piperazin-1-yl}-ethanone], the IC50 under setting [1] is 0.032 µM.

Turning to `C[C@H]1CCC(c2ccccc2)S(=O)(=O)N1Cc1ccc(N2CCC(n3ccnn3)CC2)cc1F` (single isomer, unassigned) [Example 218], the IC50 under setting [1] was determined as 0.011 µM.
